Data reported in patent US7074789B2, “Kinase inhibitors” (Amgen Inc., priority 1999, dated 2006).

Key:
Assay type in all cases: biochemical
Lyn = target: T1, Lyn (Homo sapiens, UniProt P07948); experiment: Kinase inhibition assay (33P transfer), Lyn; conditions: Table 6, Lyn-1 kinase inhibition class
T1 construct: Kinases are expressed as either kinase domains or full length constructs; made in house
Outline: (§1)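 Steps: coat wells with poly(Glu,Tyr) 4:1 or poly(Arg,Ser) 3:1; add purified kinase, [33P]ATP and inhibitor; incubate; wash with 0.5% phosphoric acid; add liquid scintillant; count. IC50 corresponds to half-maximal reduction of bound 33P.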

Fyn = target: T2, Fyn (Homo sapiens, UniProt P06241); experiment: Kinase inhibition assay (33P transfer), Fyn; conditions: read-out: Fyn-1
T2 construct: Kinases are expressed as either kinase domains or full length constructs; made in house
Outline: as §1

Itk = target: T3, Itk (Homo sapiens, UniProt Q08881); experiment: Kinase inhibition assay (33P transfer), Itk; conditions: Table 3; read-out: Itk-1
T3 construct: Kinases are expressed as either kinase domains or full length constructs; made in house
T3 sequence (Q08881 1-620): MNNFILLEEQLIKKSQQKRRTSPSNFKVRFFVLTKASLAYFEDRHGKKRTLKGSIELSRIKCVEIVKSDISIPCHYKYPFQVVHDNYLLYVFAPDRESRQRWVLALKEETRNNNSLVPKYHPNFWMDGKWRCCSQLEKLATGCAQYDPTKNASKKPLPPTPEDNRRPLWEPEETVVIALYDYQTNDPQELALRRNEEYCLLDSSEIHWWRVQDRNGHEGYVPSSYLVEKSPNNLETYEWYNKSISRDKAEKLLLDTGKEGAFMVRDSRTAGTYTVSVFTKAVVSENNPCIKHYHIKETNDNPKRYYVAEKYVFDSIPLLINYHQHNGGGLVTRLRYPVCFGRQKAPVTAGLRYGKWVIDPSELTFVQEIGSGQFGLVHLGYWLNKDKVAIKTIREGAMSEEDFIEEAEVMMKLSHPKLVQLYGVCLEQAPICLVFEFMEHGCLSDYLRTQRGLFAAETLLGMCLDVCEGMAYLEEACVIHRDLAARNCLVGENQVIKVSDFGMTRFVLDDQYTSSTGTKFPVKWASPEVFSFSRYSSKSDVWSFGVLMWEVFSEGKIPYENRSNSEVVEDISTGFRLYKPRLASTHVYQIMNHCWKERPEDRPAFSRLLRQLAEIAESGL
Outline: as §1

ErbB2 = target: T4, ErbB2 (Homo sapiens, UniProt P04626); experiment: Kinase inhibition assay (33P transfer), ErbB2; conditions: read-out: ErbB2-2
T4 construct: Kinases are expressed as either kinase domains or full length constructs; made in house
T4 sequence (P04626 23-1255, species assumed): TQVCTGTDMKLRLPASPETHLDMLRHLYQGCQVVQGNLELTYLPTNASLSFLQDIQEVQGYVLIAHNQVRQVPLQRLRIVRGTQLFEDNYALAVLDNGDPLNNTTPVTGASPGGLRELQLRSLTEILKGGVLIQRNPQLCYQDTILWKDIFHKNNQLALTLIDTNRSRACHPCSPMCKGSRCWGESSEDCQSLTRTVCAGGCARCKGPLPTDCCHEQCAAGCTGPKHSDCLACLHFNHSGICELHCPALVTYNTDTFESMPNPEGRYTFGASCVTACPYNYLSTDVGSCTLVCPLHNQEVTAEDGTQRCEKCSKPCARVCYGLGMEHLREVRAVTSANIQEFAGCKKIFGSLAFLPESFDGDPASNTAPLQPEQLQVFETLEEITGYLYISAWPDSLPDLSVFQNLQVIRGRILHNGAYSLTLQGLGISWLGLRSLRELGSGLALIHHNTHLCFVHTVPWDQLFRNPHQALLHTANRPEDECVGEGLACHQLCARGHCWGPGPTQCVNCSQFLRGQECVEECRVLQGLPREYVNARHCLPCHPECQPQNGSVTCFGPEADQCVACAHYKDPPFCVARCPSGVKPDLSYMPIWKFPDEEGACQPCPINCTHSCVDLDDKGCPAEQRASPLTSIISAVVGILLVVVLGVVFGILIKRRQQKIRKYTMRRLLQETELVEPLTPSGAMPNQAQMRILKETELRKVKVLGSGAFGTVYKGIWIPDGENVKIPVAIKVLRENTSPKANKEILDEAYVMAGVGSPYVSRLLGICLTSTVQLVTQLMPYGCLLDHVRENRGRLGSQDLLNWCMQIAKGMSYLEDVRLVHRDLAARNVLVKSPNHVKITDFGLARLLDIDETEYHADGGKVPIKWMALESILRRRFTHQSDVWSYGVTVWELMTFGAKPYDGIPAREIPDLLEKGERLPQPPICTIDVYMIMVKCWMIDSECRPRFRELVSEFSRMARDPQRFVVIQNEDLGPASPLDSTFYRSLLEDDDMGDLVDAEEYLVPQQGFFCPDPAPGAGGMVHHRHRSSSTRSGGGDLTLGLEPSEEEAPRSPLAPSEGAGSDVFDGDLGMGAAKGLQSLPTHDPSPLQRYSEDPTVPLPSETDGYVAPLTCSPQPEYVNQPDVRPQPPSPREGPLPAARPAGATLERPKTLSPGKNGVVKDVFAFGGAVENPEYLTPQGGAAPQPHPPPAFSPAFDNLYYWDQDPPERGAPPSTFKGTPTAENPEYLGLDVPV
Outline: as §1

Kdr = target: T5, Kdr (Homo sapiens, UniProt P35968); experiment: Kinase inhibition assay (33P transfer), Kdr; conditions: Table 3; read-out: KDR-1
T5 construct: Kinases are expressed as either kinase domains or full length constructs; made in house
T5 sequence (P35968 20-1356, species assumed): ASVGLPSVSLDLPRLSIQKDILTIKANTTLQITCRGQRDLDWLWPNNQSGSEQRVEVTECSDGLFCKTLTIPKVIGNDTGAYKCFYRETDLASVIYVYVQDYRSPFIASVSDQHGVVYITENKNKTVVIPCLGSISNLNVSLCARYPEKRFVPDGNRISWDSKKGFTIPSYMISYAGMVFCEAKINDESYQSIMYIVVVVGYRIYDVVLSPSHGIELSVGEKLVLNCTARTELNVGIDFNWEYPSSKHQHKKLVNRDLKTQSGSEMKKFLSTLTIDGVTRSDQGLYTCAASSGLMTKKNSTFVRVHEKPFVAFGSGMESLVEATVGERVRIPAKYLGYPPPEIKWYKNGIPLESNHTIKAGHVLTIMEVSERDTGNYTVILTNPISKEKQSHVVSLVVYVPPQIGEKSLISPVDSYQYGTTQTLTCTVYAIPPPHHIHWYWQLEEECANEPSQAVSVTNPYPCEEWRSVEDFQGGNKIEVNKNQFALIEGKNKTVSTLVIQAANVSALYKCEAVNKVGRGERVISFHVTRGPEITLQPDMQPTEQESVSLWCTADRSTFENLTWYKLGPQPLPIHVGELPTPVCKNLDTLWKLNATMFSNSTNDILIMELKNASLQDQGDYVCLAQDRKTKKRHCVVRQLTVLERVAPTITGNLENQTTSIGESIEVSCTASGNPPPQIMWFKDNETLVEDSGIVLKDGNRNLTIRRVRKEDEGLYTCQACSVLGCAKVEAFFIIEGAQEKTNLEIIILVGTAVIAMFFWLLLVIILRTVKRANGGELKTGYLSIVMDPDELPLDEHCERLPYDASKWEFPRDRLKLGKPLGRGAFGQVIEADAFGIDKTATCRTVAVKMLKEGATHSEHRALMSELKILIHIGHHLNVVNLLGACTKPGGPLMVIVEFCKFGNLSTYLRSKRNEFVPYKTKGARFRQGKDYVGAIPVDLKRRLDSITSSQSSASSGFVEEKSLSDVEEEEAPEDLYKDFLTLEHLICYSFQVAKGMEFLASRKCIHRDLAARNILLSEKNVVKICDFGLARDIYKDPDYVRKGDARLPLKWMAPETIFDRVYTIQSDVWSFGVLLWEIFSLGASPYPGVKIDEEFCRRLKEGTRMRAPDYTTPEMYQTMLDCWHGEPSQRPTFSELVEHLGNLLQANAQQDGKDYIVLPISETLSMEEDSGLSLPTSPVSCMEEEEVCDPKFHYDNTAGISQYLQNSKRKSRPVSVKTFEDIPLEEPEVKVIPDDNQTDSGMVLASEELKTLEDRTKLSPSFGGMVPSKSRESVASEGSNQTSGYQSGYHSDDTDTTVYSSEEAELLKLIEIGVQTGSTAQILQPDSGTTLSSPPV
Outline: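 Steps: express kinase as GST or polyHistidine fusion in E. coli or High Five cells; optionally co-express or mix with regulatory polypeptides; incubate with 33P-ATP and plate-attached poly(Glu,Tyr) 4:1 or poly(Arg,Ser) 3:1; wash with 0.5% phosphoric acid; count by liquid scintillation.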

Flt-1 = target: T6, Flt-1 (Homo sapiens, UniProt P17948); experiment: Kinase inhibition assay (33P transfer), Flt-1
T6 construct: Kinases are expressed as either kinase domains or full length constructs; made in house
Outline: as §1

Tek = target: T7, Tek (Homo sapiens, UniProt Q02763); experiment: Kinase inhibition assay (33P transfer), Tek; conditions: read-out: Tek-1
T7 construct: Kinases are expressed as either kinase domains or full length constructs; made in house
T7 sequence (Q02763 23-1124, species assumed): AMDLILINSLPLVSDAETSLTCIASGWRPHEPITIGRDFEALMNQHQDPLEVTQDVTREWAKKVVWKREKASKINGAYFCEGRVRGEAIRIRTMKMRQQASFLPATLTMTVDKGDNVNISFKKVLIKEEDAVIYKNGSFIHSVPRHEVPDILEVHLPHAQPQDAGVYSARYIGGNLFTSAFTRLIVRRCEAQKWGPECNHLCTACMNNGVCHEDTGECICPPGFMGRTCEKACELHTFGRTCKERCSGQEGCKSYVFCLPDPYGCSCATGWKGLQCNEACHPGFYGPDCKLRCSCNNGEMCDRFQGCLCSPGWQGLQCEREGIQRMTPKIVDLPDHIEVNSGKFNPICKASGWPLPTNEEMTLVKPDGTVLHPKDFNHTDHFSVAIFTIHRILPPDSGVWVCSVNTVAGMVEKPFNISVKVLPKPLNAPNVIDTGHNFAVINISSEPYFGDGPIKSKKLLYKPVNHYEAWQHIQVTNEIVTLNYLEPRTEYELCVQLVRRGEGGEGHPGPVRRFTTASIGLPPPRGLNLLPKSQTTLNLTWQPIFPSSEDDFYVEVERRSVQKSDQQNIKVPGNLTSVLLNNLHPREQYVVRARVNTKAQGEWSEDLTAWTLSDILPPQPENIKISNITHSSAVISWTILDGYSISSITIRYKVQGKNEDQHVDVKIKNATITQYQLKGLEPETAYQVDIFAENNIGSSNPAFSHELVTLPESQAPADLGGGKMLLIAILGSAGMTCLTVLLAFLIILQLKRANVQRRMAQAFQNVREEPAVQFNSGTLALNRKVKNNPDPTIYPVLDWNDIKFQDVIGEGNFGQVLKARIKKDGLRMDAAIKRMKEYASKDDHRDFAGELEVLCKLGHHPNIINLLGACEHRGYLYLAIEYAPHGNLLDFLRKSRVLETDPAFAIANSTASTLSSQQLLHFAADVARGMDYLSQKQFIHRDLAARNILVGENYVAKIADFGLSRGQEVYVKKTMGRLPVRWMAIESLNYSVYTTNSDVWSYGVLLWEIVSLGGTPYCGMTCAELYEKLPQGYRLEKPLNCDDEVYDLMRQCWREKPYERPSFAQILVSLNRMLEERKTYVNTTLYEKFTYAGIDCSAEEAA
Outline: as §1

c-Met = target: T8, c-Met (Homo sapiens, UniProt P08581); experiment: Kinase inhibition assay (33P transfer), c-Met; conditions: Table 2, kinase inhibition class; read-out: Met-1
T8 construct: Kinases are expressed as either kinase domains or full length constructs; made in house
T8 sequence (P08581 25-1390): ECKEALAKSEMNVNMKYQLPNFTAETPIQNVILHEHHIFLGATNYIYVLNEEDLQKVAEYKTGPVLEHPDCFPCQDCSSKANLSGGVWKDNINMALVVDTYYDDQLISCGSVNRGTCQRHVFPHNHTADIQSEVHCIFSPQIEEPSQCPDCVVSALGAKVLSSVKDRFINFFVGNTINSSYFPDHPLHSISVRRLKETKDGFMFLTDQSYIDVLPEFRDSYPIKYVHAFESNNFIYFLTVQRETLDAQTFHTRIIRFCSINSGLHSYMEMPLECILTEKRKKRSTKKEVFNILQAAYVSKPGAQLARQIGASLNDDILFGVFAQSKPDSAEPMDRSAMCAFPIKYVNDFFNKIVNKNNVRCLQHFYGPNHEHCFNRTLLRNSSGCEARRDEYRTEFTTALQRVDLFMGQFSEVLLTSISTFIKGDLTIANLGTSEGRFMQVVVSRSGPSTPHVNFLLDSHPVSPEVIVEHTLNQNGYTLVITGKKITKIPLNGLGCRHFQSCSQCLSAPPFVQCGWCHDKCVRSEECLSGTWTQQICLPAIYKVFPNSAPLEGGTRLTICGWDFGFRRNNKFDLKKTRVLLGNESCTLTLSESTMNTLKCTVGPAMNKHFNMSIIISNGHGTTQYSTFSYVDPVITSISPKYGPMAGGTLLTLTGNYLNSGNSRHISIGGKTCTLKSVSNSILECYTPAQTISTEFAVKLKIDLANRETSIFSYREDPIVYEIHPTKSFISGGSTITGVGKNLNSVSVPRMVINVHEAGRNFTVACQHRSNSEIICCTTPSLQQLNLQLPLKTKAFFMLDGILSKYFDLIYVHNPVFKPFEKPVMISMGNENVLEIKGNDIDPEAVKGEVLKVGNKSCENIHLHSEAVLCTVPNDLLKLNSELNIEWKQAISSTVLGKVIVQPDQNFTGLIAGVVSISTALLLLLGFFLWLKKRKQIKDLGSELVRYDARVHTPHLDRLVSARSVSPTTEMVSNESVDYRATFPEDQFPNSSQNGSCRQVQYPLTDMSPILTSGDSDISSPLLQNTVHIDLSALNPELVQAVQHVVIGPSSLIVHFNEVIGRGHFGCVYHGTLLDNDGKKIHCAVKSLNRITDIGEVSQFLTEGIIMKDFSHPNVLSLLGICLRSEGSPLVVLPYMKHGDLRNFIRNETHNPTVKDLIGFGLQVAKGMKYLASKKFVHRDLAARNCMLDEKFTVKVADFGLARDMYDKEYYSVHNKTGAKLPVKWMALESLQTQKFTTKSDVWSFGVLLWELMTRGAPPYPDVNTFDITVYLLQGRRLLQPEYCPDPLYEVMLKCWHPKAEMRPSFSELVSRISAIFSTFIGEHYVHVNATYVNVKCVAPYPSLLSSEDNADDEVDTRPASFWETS
Outline: as §1

PDGFRB = target: T9, PDGFRB (Homo sapiens, UniProt P09619); experiment: Kinase inhibition assay (33P transfer), PDGFRB; conditions: read-out: PDGFRB-1
T9 construct: Kinases are expressed as either kinase domains or full length constructs; made in house

Hck-1 = target: T10, Hck-1 (Homo sapiens, UniProt P08631); experiment: Kinase inhibition assay (33P transfer), Hck; conditions: Table 6, Hck-1 kinase inhibition class
T10 construct: Kinases are expressed as either kinase domains or full length constructs; made in house

Ret-1 = target: T11, Ret-1 (Homo sapiens, UniProt P07949); experiment: Kinase inhibition assay (33P transfer), Ret; conditions: Table 6, Ret-1 kinase inhibition class
T11 construct: Kinases are expressed as either kinase domains or full length constructs; made in house

FGFR1 = target: T12, FGFR1 (Homo sapiens, UniProt P11362); experiment: Kinase inhibition assay (33P transfer), FGFR1; conditions: read-out: FGFR1-1
T12 construct: Kinases are expressed as either kinase domains or full length constructs; made in house

Compound	IC50 (Lyn)	IC50 (Fyn)	IC50 (Itk)	IC50 (ErbB2)	IC50 (Kdr)	IC50 (Flt-1)	IC50 (Tek)	IC50 (c-Met)	IC50 (PDGFRB)	IC50 (Hck-1)	IC50 (Ret-1)	IC50 (FGFR1)
COc1cc(Nc2ncnc(Nc3cccc(C)c3)n2)cc(OC)c1OC [Compound 64]	< 1.09 µM	1.09 to 6.53 µM	> 12.2 µM	1.09 to 6.53 µM	1.09 to 6.53 µM	> 12.2 µM	> 12.2 µM	6.53 to 9.53 µM	9.53 to 12.2 µM	> 12.2 µM	> 12.2 µM	> 12.2 µM
COc1cc(Nc2ncnc(Nc3cc(OC)c(OC)c(OC)c3)n2)cc(OC)c1 [Compound 86]	> 10.9 µM	8.47 to 10.9 µM	> 10.9 µM	0.968 to 5.81 µM	< 0.968 µM	> 10.9 µM	> 10.9 µM	> 10.9 µM	0.968 to 5.81 µM	> 10.9 µM	0.968 to 5.81 µM	> 10.9 µM
COc1cc(Nc2ncnc(Nc3ccc(C)c(O)c3)n2)cc(OC)c1OC [Compound 83]	< 1.04 µM	< 1.04 µM	1.04 to 6.26 µM	< 1.04 µM	< 1.04 µM	< 1.04 µM	9.13 to 11.7 µM	> 11.7 µM	< 1.04 µM	1.04 to 6.26 µM	< 1.04 µM	< 1.04 µM
COc1cc(Nc2ncnc(Nc3ccc(C(N)=O)cc3)n2)cc(OC)c1OC [Compound 33]	1.01 to 6.05 µM	6.05 to 8.83 µM	> 11.4 µM		1.01 to 6.05 µM	> 11.4 µM	> 11.4 µM	> 11.4 µM	8.83 to 11.4 µM	> 11.4 µM	> 11.4 µM	6.05 to 8.83 µM
COc1cc(Nc2ncnc(Nc3ccc(O)cc3)n2)cc(OC)c1OC [Compound 85]	< 1.08 µM	< 1.08 µM	1.08 to 6.5 µM		< 1.08 µM	< 1.08 µM	> 12.2 µM	> 12.2 µM	< 1.08 µM	> 12.2 µM	1.08 to 6.5 µM	< 1.08 µM
COc1cc(Nc2ncnc(Nc3ccc(Oc4ccccc4)cc3)n2)cc(OC)c1OC [Compound 29]	< 0.898 µM	< 0.898 µM	> 10.1 µM		< 0.898 µM	< 0.898 µM	> 10.1 µM	7.86 to 10.1 µM	0.898 to 5.39 µM	> 10.1 µM	< 0.898 µM	< 0.898 µM
COc1cccc(Nc2ncnc(Nc3cc(OC)c(OC)c(OC)c3)n2)c1 [Compound 87]	1.04 to 6.26 µM	1.04 to 6.26 µM	> 11.7 µM	< 1.04 µM	1.04 to 6.26 µM	9.13 to 11.7 µM	> 11.7 µM	> 11.7 µM	< 1.04 µM	> 11.7 µM	1.04 to 6.26 µM	6.26 to 9.13 µM
COc1cc(Nc2ncnc(Nc3cc(Cl)c(O)c(Cl)c3)n2)cc(OC)c1OC [Compound 68]	< 0.913 µM	> 10.3 µM	> 10.3 µM		< 0.913 µM	< 0.913 µM	> 10.3 µM	7.99 to 10.3 µM	0.913 to 5.48 µM	> 10.3 µM	0.913 to 5.48 µM	> 10.3 µM
COc1cc(Nc2ncnc(Nc3ccc(C(C)C)cc3)n2)cc(OC)c1OC [Compound 66]	1.01 to 6.07 µM	> 11.4 µM	> 11.4 µM		1.01 to 6.07 µM	> 11.4 µM	6.07 to 8.85 µM	1.01 to 6.07 µM	> 11.4 µM	> 11.4 µM	> 11.4 µM	> 11.4 µM
COc1cc(Nc2ncnc(Nc3ccc4[nH]ncc4c3)n2)cc(OC)c1OC [Compound 79]	< 1.02 µM	1.02 to 6.1 µM	< 1.02 µM		< 1.02 µM	1.02 to 6.1 µM	> 11.4 µM	6.1 to 8.9 µM	1.02 to 6.1 µM	> 11.4 µM	> 11.4 µM	6.1 to 8.9 µM

Second part, the compound after the results:

IC50 (Lyn)	IC50 (Fyn)	IC50 (Itk)	IC50 (ErbB2)	IC50 (Kdr)	IC50 (Flt-1)	IC50 (Tek)	IC50 (c-Met)	IC50 (PDGFRB)	IC50 (Hck-1)	IC50 (Ret-1)	IC50 (FGFR1)	Compound
< 1.02 µM	> 11.5 µM	6.12 to 8.92 µM	< 1.02 µM	< 1.02 µM	< 1.02 µM	> 11.5 µM	6.12 to 8.92 µM	< 1.02 µM	> 11.5 µM	< 1.02 µM	1.02 to 6.12 µM	COc1cc(Nc2ncnc(Nc3ccc4[nH]ccc4c3)n2)cc(OC)c1OC [Compound 928]
0.989 to 5.93 µM	5.93 to 8.65 µM	> 11.1 µM	> 11.1 µM	< 0.989 µM	5.93 to 8.65 µM	> 11.1 µM	> 11.1 µM	< 0.989 µM	> 11.1 µM	0.989 to 5.93 µM	5.93 to 8.65 µM	COc1cc(Nc2ncnc(Nc3cccc4cccnc34)n2)cc(OC)c1OC [Compound 97]
0.991 to 5.95 µM	8.68 to 11.2 µM	> 11.2 µM	< 0.991 µM	0.991 to 5.95 µM	8.68 to 11.2 µM	> 11.2 µM	> 11.2 µM	0.991 to 5.95 µM	8.68 to 11.2 µM	5.95 to 8.68 µM	> 11.2 µM	COc1cc(Nc2ncnc(Nc3ccc4ccccc4c3)n2)cc(OC)c1OC [Compound 96]
0.991 to 5.95 µM	0.991 to 5.95 µM	> 11.2 µM	< 0.991 µM	< 0.991 µM	> 11.2 µM	> 11.2 µM	> 11.2 µM	> 11.2 µM	> 11.2 µM	> 11.2 µM	5.95 to 8.68 µM	COc1cc(Nc2ncnc(Nc3cccc4ccccc34)n2)cc(OC)c1OC [Compound 98]
< 0.954 µM	< 0.954 µM	0.954 to 5.72 µM	0.954 to 5.72 µM	< 0.954 µM	< 0.954 µM	5.72 to 8.34 µM	< 0.954 µM	5.72 to 8.34 µM	5.72 to 8.34 µM	0.954 to 5.72 µM	0.954 to 5.72 µM	COc1cc(Nc2ncnc(Nc3cc(-c4ccccc4)n[nH]3)n2)cc(OC)c1OC [Compound 102]
< 1.04 µM	< 1.04 µM	9.13 to 11.7 µM		< 1.04 µM	1.04 to 6.26 µM	> 11.7 µM	> 11.7 µM	< 1.04 µM	1.04 to 6.26 µM	1.04 to 6.26 µM	1.04 to 6.26 µM	COc1ccccc1Nc1ncnc(Nc2cc(OC)c(OC)c(OC)c2)n1 [Compound 90]
1.13 to 6.79 µM	< 1.13 µM	> 12.7 µM	1.13 to 6.79 µM	1.13 to 6.79 µM	< 1.13 µM	> 12.7 µM	> 12.7 µM	< 1.13 µM	> 12.7 µM	1.13 to 6.79 µM	6.79 to 9.9 µM	COc1cc(Nc2ncnc(Nc3ccccc3)n2)cc(OC)c1OC [Compound 91]
6.1 to 8.9 µM	1.02 to 6.1 µM	1.02 to 6.1 µM	> 11.4 µM	< 1.02 µM	< 1.02 µM	1.02 to 6.1 µM	1.02 to 6.1 µM	< 1.02 µM	> 11.4 µM	1.02 to 6.1 µM	< 1.02 µM	COc1cc(Nc2ncnc(-n3c(N)nc4ccccc43)n2)cc(OC)c1OC [Compound 289]
0.871 to 5.22 µM	5.22 to 7.62 µM	> 9.79 µM		< 0.871 µM	0.871 to 5.22 µM	7.62 to 9.79 µM	7.62 to 9.79 µM	< 0.871 µM	> 9.79 µM	7.62 to 9.79 µM	0.871 to 5.22 µM	COc1cc(Nc2ncnc(Nc3ccc(OCc4ccccc4)cc3)n2)cc(OC)c1OC [Compound 926]
